For test [1], the system named is MUC1 in CHO1d1D/MUC1F-clone2 cells. Kind of test: Cell surface expression of MUC1 by immunocytology of non-permeabilized cells (FIG. 11). The format is cell-based, Chinese Hamster. To be noted: 1 mM, cells grown in GalNAc. Here is the method:
Immunocytology: Two different procedures were applied: i) For general screening purposes, cells grown in plates or flasks were trypsinized, washed in saline, and airdried on multiwell coverslides. Slides were fixed in ice-cold acetone and stained with monoclonal antibodies and FITC-conjugated rabbit anti-mouse Ig as previously described^50. ii) For analysis of cell surface expression, cells were seeded in 6 well plates and grown for 6 hours in Hams F12 medium with serum until approximately 30-50% subconfluent. […] Cells were washed once in PBS (phosphate buffered saline without Calcium and Magnesium) and subsequently fixed in 2 ml 3% paraformaldehyde at 25° C. for 20 min followed by three washes with PBS. Free aldehyde groups were quenched by incubating in 2 mL 50 mM Ammonium Chloride in PBS for 10 min, followed by three washes with PBS and three washes with 5 min incubations each with PBS containing 0.2% Fish Skin Gelatin (Sigma). Immunostaining of cells was performed by incubation with monoclonal antibodies for 40 min at 25° C., followed by three washes with PBS and three washes of 5 min each with PBS containing 0.2% Fish Skin Gelatin. […]
We therefore investigated the effect of treatment with GalNAcα-benzyl of CHO1d1D/MUC1F-clone2 cells grown in the presence of GalNAc. […] Initially we analyzed surface expression of MUC1 by immunocytology. […]

Another test addresses T1, GalNAc-T4 lectin domain (Homo sapiens, UniProt Q8N4A0).
T1 construct: comprises amino acid residues 405-578 of GALNT4; made in house; host or cells: baculovirus (pAcGP67-A), virus made in Sf9, protein produced in High Five insect cells
Put plainly: Inhibition of GalNAc-T4 lectin domain (T4ld) binding to GalNAc-MUC1 glycopeptide, ELISA. (In general: ELISA stands for enzyme-linked immunosorbent assay.)

In the next test the target is GalNAc-T4 (Homo sapiens, UniProt Q8N4A0). To be noted: mM concentrations; cited from earlier work.
Test [2] deals with MUC5AC in HT-29 MTX cells. Kind of test: MUC5AC secretion, SDS-PAGE western blot of media with LUM5-1 (FIG. 17). It counts as cell-based, human. The following applies: 5 mM, continuous culture, media at 14 days. The method, then: FIG. 17 illustrates SDS-PAGE Western analysis of MUC5AC secretion from HT29MTX cells using polyclonal anti-MUC5AC antibody LUM5-1. In order to evaluate GalNAcβ-benzyl as an inhibitor of mucin glycosylation and secretion we used the HT-29 metotrexate (MTX) cultured colon carcinoma cells of mucin secreting phenotype. HT-29 MTX cells have a goblet cell like phenotype with constitutive production of MUC5AC. Cells were continuously grown up to 21 days in the presence of 5 mM GalNAcα-benzyl, 5 mM GalNAcβ-benzyl, 5 mM GlcNAcα-benzyl and without inhibitor. […] In striking contrast, MUC5AC was not detected in the media from cells treated with GalNAcα-benzyl (Lane 3) or GalNAcβ-benzyl (Lane 4). Results shown are from media collected at 14 days.
In order to evaluate GalNAcβ-benzyl as an inhibitor of mucin glycosylation and secretion we used the cultured colon carcinoma cells of mucin secreting phenotypes: HT-29 metotrexate (MTX) cells selected from the HT-29 cell line by culture in the presence of MTX (kind gift from G. Huet, France). The HT-29 MTX cells were selected to yield a goblet cell like phenotype with constitutive production of MUC5AC. In order to ensure proper goblet cell differentiation the HT29MTX cell line were continuously grown up to 21 days in the presence of 5 mM GalNAcα-benzyl, 5 mM GalNAcβ-benzyl, 5 mM GlcNAcα-benzyl and without inhibitor using culture conditions as described in Hennebicq-Reig et al. (Permanent exposure of mucin-secreting HT-29 cells to benzyl-N-acetyl-alpha-D-galactosaminide induces abnormal O-glycosylation of mucins and inhibits constitutive and stimulated MUC5AC secretion. Biochem J. 1998; 334:283-95). […] Furthermore the viscosity of the media from cells with and without inhibitor was evaluated using viscosity micro-measurement.
In general terms: In western blotting, separated proteins are transferred to a membrane and probed.

Entries after “also recorded” stand apart in the source; their conditions may differ.

Sequence of GalNAc-T4 (Q8N4A0 whole entry): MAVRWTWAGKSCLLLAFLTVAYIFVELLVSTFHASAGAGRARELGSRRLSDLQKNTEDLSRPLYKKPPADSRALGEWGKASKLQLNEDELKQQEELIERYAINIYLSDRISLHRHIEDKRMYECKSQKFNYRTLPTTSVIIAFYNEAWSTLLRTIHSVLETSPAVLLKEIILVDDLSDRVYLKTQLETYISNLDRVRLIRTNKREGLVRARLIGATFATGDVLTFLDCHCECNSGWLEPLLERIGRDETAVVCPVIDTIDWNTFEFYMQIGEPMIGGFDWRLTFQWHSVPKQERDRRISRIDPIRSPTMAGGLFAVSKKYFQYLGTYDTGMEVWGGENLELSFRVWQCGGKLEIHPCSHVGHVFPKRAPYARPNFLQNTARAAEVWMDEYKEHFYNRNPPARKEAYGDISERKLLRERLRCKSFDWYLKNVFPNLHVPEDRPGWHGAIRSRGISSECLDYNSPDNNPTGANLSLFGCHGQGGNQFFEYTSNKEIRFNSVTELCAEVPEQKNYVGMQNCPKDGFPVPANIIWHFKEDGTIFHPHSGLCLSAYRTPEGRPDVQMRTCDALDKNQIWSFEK
T1 sequence (Q8N4A0 405-578): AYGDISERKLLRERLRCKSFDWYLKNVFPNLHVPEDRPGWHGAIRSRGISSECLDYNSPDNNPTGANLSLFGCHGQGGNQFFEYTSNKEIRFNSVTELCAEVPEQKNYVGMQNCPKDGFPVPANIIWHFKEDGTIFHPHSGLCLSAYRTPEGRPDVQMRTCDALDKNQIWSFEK

Regarding `CC(=O)N[C@H]1[C@@H](OCc2ccccc2)O[C@H](CO)[C@H](O)[C@@H]1O` [BzlαGalNAc, benzyl-N-acetyl-alpha-D-galactosaminide], the “cell surface expression of MUC1” value in test [1] is “strong inhibition”. At GalNAc-T4 lectin domain, the IC50 amounted to 5 mM. In addition, the “inhibition of lectin mediated GalNAc-glycopeptide substrate specificity of GalNAc-T4” value at GalNAc-T4 is “can inhibit”. Moreover, the “MUC5AC in media (secretion)” value in test [2] (listed as GalNAcα-benzyl) is recorded as “diminished secretion; also recorded: not detected”.

For the compound `CC(=O)N[C@H]1[C@H](OCc2ccccc2)O[C@H](CO)[C@H](O)[C@@H]1O` [GalNAcβ-benzyl], the “MUC5AC in media (secretion)” value in test [2] was “diminished secretion; also recorded: not detected”.

The term IC50 denotes the midpoint of a concentration-inhibition curve.

Source of the values: US20080038809A1, “ISOLATED LECTIN POLYPEPTIDES CONSISTING OF TRUNCATED […] UDP-GalNAc:POLYPEPTIDE N- ACETYLGALACTOSAMINYLTRANSFERASES” (GLYCOZYM APS, priority 2002, published 2008).
